Here are results for 7 molecules from patent US20260263445A1, “TGF-BETA INHIBITOR FOR USE IN THE TREATMENT OF DEDIFFERENTIATED LIPOSARCOMA” (Institut Curie, priority 2023, published 2026).

For one assay, the system named is TGFβ pathway. Description: Ex vivo inhibition of TGFβ pathway in DDLPS PDX Sil10AS. It is filed as cell-based, human. An excerpt:
Tests and assays for determining whether a compound is a TGFβ inhibitor are well known by the skilled person in the art such as described in Frey et al., 2022; Szymańska et al., 2020. Determining whether a compound is a TGFβ inhibitor may also be performed using by using recombinant TGFβ proteins, competitive binding assays and measuring the binding affinities, measuring activated TGF-β complexes with other factors to form a serine/threonine kinase complex that binds to TGF-β receptors. […] In another particular embodiment, a TGFβ inhibitor according to the invention is at least as effective as galunisertib and/or as SB431542 in reducing phosphorylation level of SMAD2 and/or SMAD3 protein. Antibodies and/or kits to detect and quantify said phosphorylation level are well known from the skilled in the art and are commercially available.
(§1) The inventors also investigated the role of TGFβ in adipocytic differentiation in DDLPS, particularly advanced DDLPS using several TGFβ inhibitors, of a different mode of action and of different nature, such as compounds selected from the group consisting of TGFβ receptor R1/R2 inhibitors LY2109761 and LY364947; monoclonal anti-TGFβ antibodies BX-BE0057 and fresolimumab; TGFβ ligand trap such as luspatercept (a fusion protein that traps TGFβ ligands preventing them from binding to Type II TGFβ receptors) and bintrafusp alfa (a Bifunctional Fusion Protein Targeting TGF-β and PD-L1) and TQB2858 (an anti-TGF-β/PD-L1 antibody).

Assay [1] has as its system DD tumor cells from 2 DDLPS PDX models. Description: Ex vivo adipocytic differentiation of DD tumor cells from DDLPS PDX models. Type of assay: cell-based, human. To be noted: ex vivo/in vitro, transcriptomic and phenotypic level.
Excerpt: DDLPS tumor cells keep the multipotent properties of their progenitors. […] Adipocytic differentiation is confirmed with the detection of green vacuoles (Bodipy staining) and osteogenic differentiation by red staining after Alizarin red treatment (Data not shown).
as §1

The test system of the next assay is DDLPS PDX Sil10AS. Description: Nude mice engrafted with DDLPS PDX Sil10AS: tumor growth and differentiation. Type of assay: in vivo. On the procedure:
7 nude mice engrafted with the DDLPS PDX Sil10AS are treated with TGFβ inhibitor galunisertib. The tumor growth rate is compared to a control group of 7 nude mice engrafted with the same PDX model and treated with a vehicle. At the end of the experiment, tumor differentiation are assessed at the microscopic and transcriptomic level.

For `c1ccc(-c2[nH]ncc2-c2ccnc3ccccc23)nc1` [LY364947], in the assay on TGFβ pathway, the “inhibiting ex vivo TGFβ pathway, compared with galunisertib or SB431542” value is recorded as “at least as effective than galunisertib or SB431542”. Besides, in assay [1], the “adipocytic differentiation of DD tumor cells” value was “restore adipocytic differentiation phenotype”.
Regarding `c1ccc(-c2nn3c(c2-c2ccnc4cc(OCCN5CCOCC5)ccc24)CCC3)nc1` [LY2109761], in the assay with TGFβ pathway, the “inhibiting ex vivo TGFβ pathway, compared with galunisertib or SB431542” value is listed as “at least as effective than galunisertib or SB431542”. Moreover, the “adipocytic differentiation of DD tumor cells” value in assay [1] is given as “restore adipocytic differentiation phenotype”.
On to `NC(=O)c1ccc(-c2nc(-c3ccc4c(c3)OCO4)c(-c3ccccn3)[nH]2)cc1` [SB431542], for which the “adipocytic differentiation of DD tumor cells” value in assay [1] is “restores adipocytic differentiation”.
For the molecule `Cc1cccc(-c2nn3c(c2-c2ccnc4ccc(C(N)=O)cc24)CCC3)n1` [galunisertib], in assay [1], the “adipocytic differentiation of DD tumor cells” value is “restores adipocytic differentiation”. Further, the “adipocytic differentiation of DD cells in treated PDX” value in the assay on DDLPS PDX Sil10AS (DDLPS PDX in nude mice, assessed at the microscopic and transcriptomic level at end of experiment) is “restore adipocytic differentiation”. Besides, the tumor growth result with DDLPS PDX Sil10AS (nude mice engrafted with DDLPS PDX Sil10AS, compared with vehicle group) was “reduce tumor growth”.
Take TGFβ: the “adipocytic differentiation of DD tumor cells” value in assay [1] is recorded as “prevented”.
“fresolimumab: monoclonal anti-TGFβ antibody; CAS 948564-73-6”: the “inhibiting ex vivo TGFβ pathway, compared with galunisertib or SB431542” value with TGFβ pathway is reported as “at least as effective than galunisertib or SB431542”. Besides, the “adipocytic differentiation of DD tumor cells” value in assay [1] is given as “restore adipocytic differentiation phenotype”.

B1: bintrafusp alfa: Bifunctional Fusion Protein Targeting TGF-β and PD-L1; CAS 1918149-01-5 (antibody, chains of the INN, looked up, V domains shown)
VH: EVQLLESGGGLVQPGGSLRLSCAASGFTFSSYIMMWVRQAPGKGLEWVSSIYPSGGITFYADTVKGRFTISRDNSKNTLYLQMNSLRAEDTAVYYCARIKLGTVTTVDYWGQGTLVTVSS
VL: QSALTQPASVSGSPGQSITISCTGTSSDVGGYNYVSWYQQHPGKAPKLMIYDVSNRPSGVSNRFSGSKSGNTASLTISGLQAEDEADYYCSSYTSSSTRVFGTGTKVTVL
Take B1: in the assay on TGFβ pathway, the “inhibiting ex vivo TGFβ pathway, compared with galunisertib or SB431542” value was “at least as effective than galunisertib or SB431542”. Moreover, the “adipocytic differentiation of DD tumor cells” value in assay [1] is on record as “restore adipocytic differentiation phenotype”.
